Laboratory results taken from patent publication US20120157529A1 (priority 2009, published 2012).

T1: ToxT (Vibrio cholerae serotype O1, UniProt A5F384)
T1 construct: Full-length ToxT was cloned from Vibrio cholerae 0395; made in house; host or cells: E. coli BL21-CODONPLUS (DE3)-RIL
T1 sequence (A5F384 1-276): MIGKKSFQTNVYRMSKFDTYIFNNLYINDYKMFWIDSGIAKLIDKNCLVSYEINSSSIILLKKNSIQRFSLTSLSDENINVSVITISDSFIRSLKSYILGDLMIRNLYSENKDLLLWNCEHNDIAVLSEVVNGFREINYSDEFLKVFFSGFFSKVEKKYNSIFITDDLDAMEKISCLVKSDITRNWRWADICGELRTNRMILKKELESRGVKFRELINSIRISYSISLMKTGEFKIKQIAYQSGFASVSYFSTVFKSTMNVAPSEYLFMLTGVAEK


Columns and labels:
ToxT-activated genes = conditions: cited from earlier work
ToxT [1] = target: T1, ToxT; assay: Electrophoretic mobility shift assay of ToxT binding to tcp promoter DNA; format: biochemical; conditions: fatty acid 0.002%; 30 minutes at 30° C.
Protocol: Electrophoretic Mobility Shift Assays. Single-stranded, forty base-pair complimentary oligos (Operon) from the tcp promoter (5′-GTGTTATTAAAAAAATAAAAAAACACAGCAAAAAATGACA-3′; SEQ ID NO:1) were end labeled with a biotin-conjugated dUTP using the Biotin 3′ End Labeling Kit (Pierce) following the manufacturer's instructions and then annealed to form double-stranded fragments. EMSA's were carried out using the LightShift Chemiluminescent EMSA Kit (Pierce) following the manufacturer's instructions. Briefly, 2.5 pmole, 4 pmole, 5 pmole of ToxT were mixed with 50 fmole of double-stranded labeled DNA in a binding buffer (10 mM Tris pH 7.5, 1 mM EDTA, 100 mM KCl, 5 mM MgCl2, 1 mM DTT, 0.3 mg mL^−1 BSA, 150 μg herring sperm DNA, and 10% glycerol). Fatty acids were dissolved in methanol and added to a final concentration of 0.002% using the same volume of methanol as a control. To show specificity, a 70-fold molar excess of unlabeled double-stranded tcp fragment and a 70-fold molar excess of unlabeled nonspecific DNA (42 base pairs) were added as controls. Reactions were then incubated for 30 minutes at 30° C. and loaded on a 1×TBE 6% polyacrylamide gel at 4° C. then transferred onto a positively charged membrane (HYBOND XL, GE Healthcare) and detected by chemiluminescence. An EMSA experiment was conducted using the control reagents from the LightShift Chemiluminescent EMSA Kit following the manufacturer's instructions while adding methanol and 0.02% fatty acids.

tcp and ctx operons = assay: β-galactosidase assay of tcp-lacZ and ctx-lacZ fusions in V. cholerae cultures with added fatty acids; format: cell-based, Vibrio cholerae; conditions: fatty acid at 0.02% in methanol; LB medium pH 6.5, 30° C., 18 hours
Protocol: Expression is based upon β-galactosidase activity of tcpA-lacZ and ctx-lacZ fusion constructs, respectively. Cells were grown in LB medium pH 6.5 at 30° C. for 18 hours +/− the indicated fatty acids at 0.02% dissolved in methanol. C, control with methanol; PA, sodium palmitate; POA, palmitoleic acid; OA, oleic acid.
β-galactosidase Assays. β-galactosidase activity was determined by conventional methods (Miller (1972) Experiments in Molecular Genetics (Cold Spring Harbor Laboratory Press, Cold Spring Harbor, N.Y.). The tcp-lacZ and ctx-lacZ strains MBN135 (Nye, et al. (2000) J. Bacteriol. 182:4295-4303) and KSK218 (Skorupski & Taylor (1997) Proc. Natl. Acad. Sci. USA 94:265-270) were grown for 18 hours in LB media pH 6.5 at 30° C. Either methanol or the indicated fatty acids were added to 0.02%.
To address whether cis-palmitoleate was capable of influencing the activity of ToxT, different UFAs and SFAs were added to cultures of V. cholerae strains carrying transcriptional fusions to the tcp and ctx operons. […].

V. cholerae strain 0395 = assay: Infant mouse cholera model, survival at 48 hours post-infection; format: in vivo; conditions: for protection of mice from cholera / survival versus control and methanol groups: infant mouse, 48 hours post-infection, Tukey HSD p<0.05
Protocol: FIG. 3 is a means diamond plot. Mouse lethality data was converted to survival rates based on percentage of 48 hours at time of death. A one-way ANOVA was used to test for survival rate differences among the five groups in the challenge assay. […] Arcsine transformations were performed on the data to remove possible bias caused by percentages but there was no difference between transformed and non-transformed data. A means diamond illustrates a sample mean and 95% confidence interval. The line across each diamond represents the group mean. The vertical span of each diamond represents the 95% confidence interval for each group. Overlap marks are drawn above and below the group mean. […] The horizontal extent of each group along the x-axis (the horizontal size of the diamond) is proportional to the sample size of each level of the x variable. It follows that the narrower diamonds are usually the taller ones because fewer data points yield a less precise estimate of the group mean. Control is bacteria in broth. MeOH is methanol and MeOHC received a second dose of methanol 1 hour after infection. PA is 0.2% palmiteoleic acid dissolved in methanol and PAC includes a second dose of 0.2% palmiteoleic acid administered 1 hour after infection.
Palmiteoleic acid (0.2%) dissolved in methanol was co-administered orally with approximately a 10 lethal dose 50 (LD50) of V. cholerae strain 0395. In some cases an additional administration of palmiteoleic acid was given to the mice one hour after infection. The ability of palmiteoleic acid to prevent death from cholera was assessed at 48 hours post-infection. The results are presented in FIG. 3 as a means diamond plot.

ToxT [2] = target: T1, ToxT; conditions: cited from earlier work
ToxT [3] = target: ToxT (Vibrio cholerae O395, UniProt A5F384 A5F384:1-276); assay: EMSA; bound at 100-fold molar excess of protein (5 pmol ToxT to 50 fmol DNA), not at 50-fold; competed by 70-fold unlabeled probe; 5 mM MgCl2, 100 mM KCl, pH 7.5, 30; conditions: tags: full-length; expressed as intein/CBD fusion (pTXB1, NEB IMPACT-CN), tag cleaved with DTT; label: 3' biotin-dUTP

| Molecule | inhibition of expression of ToxT-activated genes (ToxT-activated genes) | effect on ToxT binding to DNA (40 base-pair tcp promoter probe) (ToxT [1]) | reduction of expression of tcp and ctx operons (β-galactosidase activity of lacZ fusions) (tcp and ctx operons) | also measured |
| --- | --- | --- | --- | --- |
| CCCCC/C=C\C/C=C\C/C=C\C/C=C\CCCC(=O)O [arachidonic acid] | strongly inhibit |  |  |  |
| CCCCC/C=C\C/C=C\CCCCCCCC(=O)O [linoleic acid] | strongly inhibit |  |  |  |
| CCCCCCCC/C=C\CCCCCCCC(=O)O [oleic acid] | strongly inhibit | completely prevented ToxT from binding to DNA | 10-15 fold |  |
| CCCCCCCCCCCCCCCC(=O)O [palmitic acid] | not shown to inhibit | no effect on ToxT binding | two-fold |  |
| CCCCCC/C=C\CCCCCCCC(=O)O [palmitoleic acid, (Z)-9-hexadecenoic acid] |  | completely prevented ToxT from binding to DNA | 6-8 fold | mean survival rate (percentage of 48 hours at time of death) (V. cholerae strain 0395; 0.2% co-administered orally plus second dose 1 hour after infection, group PAC {5}): 89.389%; mean survival rate (percentage of 48 hours at time of death) (V. cholerae strain 0395; 0.2% in methanol co-administered orally with about 10 LD50 V. cholerae 0395, group PA {4}): 80.093%; protection of mice from cholera / survival versus control and methanol groups (V. cholerae strain 0395; listed as PA): significantly higher survival rates; protection of mice from cholera / survival versus control and methanol groups (V. cholerae strain 0395; listed as palmiteoleic acid): extremely effective at protecting the mice from cholera |
| CCCCCCCCCCCCCCCCCC(=O)O [stearic acid] | not shown to inhibit |  |  |  |
| O=C(O)CCCN1C(=O)c2cccc3cccc(c23)C1=O [virstatin, 4-[N-(1,8-naphthalimide)]-n-butyric acid] |  |  |  | effect on ToxT dimerization and activation of tcp and ctx promoter transcription (ToxT [2]): interferes with ToxT's ability to dimerize and activate transcription of the tcp and ctx promoters |
| tcp promoter 40 bp toxbox probe (dsDNA) DNA 1: GTGTTATTAAAAAAATAAAAAAACACAGCAAAAAATGACA DNA 2: TGTCATTTTTTGCTGTGTTTTTTTATTTTTTTAATAACAC |  |  |  | binding result (ToxT [3]): binds |
